{
  "source": "patent US6905841B2",
  "about": "“Enzymatic substrates for detecting Pseudomonas aeruginas” (Biomerieux S.A., priority 1999, dated 2005)",
  "key": {"β-alanine aminopeptidase [1]": {"system": "β-alanine aminopeptidase", "details": "Citrobacter freundii; 2 strains tested; read after 22 to 24 hours"}, "β-alanine aminopeptidase [2]": {"system": "β-alanine aminopeptidase", "details": "Klebsiella oxytoca; 2 strains tested; read after 22 to 24 hours"}, "β-alanine aminopeptidase [3]": {"system": "β-alanine aminopeptidase", "details": "Aeromonas hydrophila; 2 strains tested; read after 22 to 24 hours"}, "β-alanine aminopeptidase [4]": {"system": "β-alanine aminopeptidase", "details": "Achromobacter xylosoxydans; 2 strains tested; read after 22 to 24 hours"}, "β-alanine aminopeptidase [5]": {"system": "β-alanine aminopeptidase", "details": "Stenotrophomonas maltophilia; 2 strains tested; read after 22 to 24 hours"}, "β-alanine aminopeptidase [6]": {"system": "β-alanine aminopeptidase", "details": "Streptococcus agalactiae; 1 strain tested; read after 22 to 24 hours"}, "β-alanine aminopeptidase [7]": {"system": "β-alanine aminopeptidase", "details": "Citrobacter amalonaticus; 2 strains tested; read after 22 to 24 hours"}, "β-alanine aminopeptidase [8]": {"system": "β-alanine aminopeptidase", "details": "Pseudomonas aeruginosa; 13 strains tested; read after 22 to 24 hours"}, "β-alanine aminopeptidase [9]": {"system": "β-alanine aminopeptidase", "details": "Sphingomonas paucimobilis; 2 strains tested; read after 22 to 24 hours"}, "β-alanine aminopeptidase [10]": {"system": "β-alanine aminopeptidase", "details": "Salmonella arizonae; 1 strain tested; read after 22 to 24 hours"}, "β-alanine aminopeptidase [11]": {"system": "β-alanine aminopeptidase", "type": "cell-based", "details": "Ochrobactrum anthropi; 1 strain tested; read after 22 to 24 hours"}, "β-alanine aminopeptidase [12]": {"system": "β-alanine aminopeptidase", "assay": "APIZYM-type test strips with β-alanyl-β-naphthylamide", "type": "cell-based", "details": "Pasteurella aerogenes; five strains"}, "β-alanine aminopeptidase [13]": {"system": "β-alanine aminopeptidase", "assay": "APIZYM-type test strips with β-alanyl-β-naphthylamide", "type": "cell-based", "details": "Psychrobacter phenylpyruvicus; 4 strains"}, "β-alanine aminopeptidase [14]": {"system": "β-alanine aminopeptidase", "assay": "APIZYM-type test strips with β-alanyl-β-naphthylamide", "type": "cell-based", "details": "Serratia fonticola; five strains"}, "β-alanine aminopeptidase [15]": {"system": "β-alanine aminopeptidase", "assay": "APIZYM-type test strips with β-alanyl-β-naphthylamide", "type": "cell-based", "details": "Yersinia enterocolitica; five strains"}, "β-alanine aminopeptidase [16]": {"system": "β-alanine aminopeptidase", "assay": "APIZYM-type test strips with β-alanyl-β-naphthylamide", "type": "cell-based", "details": "Pseudomonas mendocina; five strains"}, "β-alanine aminopeptidase [17]": {"system": "β-alanine aminopeptidase", "assay": "APIZYM-type test strips with β-alanyl-β-naphthylamide", "type": "cell-based", "details": "Providencia stuartii; five strains"}, "β-alanine aminopeptidase [18]": {"system": "β-alanine aminopeptidase", "assay": "APIZYM-type test strips with β-alanyl-β-naphthylamide", "type": "cell-based", "details": "Pasteurella gallinarum; 1 strain"}, "β-alanine aminopeptidase [19]": {"system": "β-alanine aminopeptidase", "assay": "APIZYM-type test strips with β-alanyl-β-naphthylamide", "type": "cell-based", "details": "Moraxella non liquefaciens; 13 strains"}, "β-alanine aminopeptidase [20]": {"system": "β-alanine aminopeptidase", "assay": "APIZYM-type test strips with β-alanyl-β-naphthylamide", "type": "cell-based", "details": "Salmonella typhi; five strains"}, "β-alanine aminopeptidase [21]": {"system": "β-alanine aminopeptidase", "assay": "APIZYM-type test strips with β-alanyl-β-naphthylamide", "type": "cell-based", "details": "Pseudomonas putida; five strains"}, "β-alanine aminopeptidase [22]": {"system": "β-alanine aminopeptidase", "assay": "APIZYM-type test strips with β-alanyl-β-naphthylamide", "type": "cell-based", "details": "Aeromonas hydrophila; five strains"}, "β-alanine aminopeptidase [23]": {"system": "β-alanine aminopeptidase", "assay": "APIZYM-type test strips with β-alanyl-β-naphthylamide", "type": "cell-based", "details": "Comamonas testosteroni; five strains"}, "β-alanine aminopeptidase [24]": {"system": "β-alanine aminopeptidase", "assay": "APIZYM-type test strips with β-alanyl-β-naphthylamide", "type": "cell-based", "details": "Proteus morganii; five strains"}, "β-alanine aminopeptidase [25]": {"system": "β-alanine aminopeptidase", "assay": "APIZYM-type test strips with β-alanyl-β-naphthylamide", "type": "cell-based", "details": "Shigella sonnei; five strains"}, "β-alanine aminopeptidase [26]": {"system": "β-alanine aminopeptidase", "assay": "APIZYM-type test strips with β-alanyl-β-naphthylamide", "type": "cell-based", "details": "Salmonella gallinarum; 3 strains"}, "β-alanine aminopeptidase [27]": {"system": "β-alanine aminopeptidase", "assay": "APIZYM-type test strips with β-alanyl-β-naphthylamide", "type": "cell-based", "details": "Chryseobacterium meningosepticum; five strains"}, "β-alanine aminopeptidase [28]": {"system": "β-alanine aminopeptidase", "assay": "APIZYM-type test strips with β-alanyl-β-naphthylamide", "type": "cell-based", "details": "Providencia alcalifaciens; five strains"}, "β-alanine aminopeptidase [29]": {"system": "β-alanine aminopeptidase", "assay": "APIZYM-type test strips with β-alanyl-β-naphthylamide", "type": "cell-based", "details": "Serratia plymuthica; five strains"}, "β-alanine aminopeptidase [30]": {"system": "β-alanine aminopeptidase", "assay": "APIZYM-type test strips with β-alanyl-β-naphthylamide", "type": "cell-based", "details": "Sphingobacterium multivorum; five strains"}, "β-alanine aminopeptidase [31]": {"system": "β-alanine aminopeptidase", "assay": "APIZYM-type test strips with β-alanyl-β-naphthylamide", "type": "cell-based", "details": "Empedobacter brevis; 3 strains"}, "β-alanine aminopeptidase [32]": {"system": "β-alanine aminopeptidase", "assay": "APIZYM-type test strips with β-alanyl-β-naphthylamide", "type": "cell-based", "details": "Enterobacter gergoviae; five strains"}, "β-alanine aminopeptidase [33]": {"system": "β-alanine aminopeptidase", "assay": "APIZYM-type test strips with β-alanyl-β-naphthylamide", "type": "cell-based", "details": "Serratia liquefaciens; five strains"}, "β-alanine aminopeptidase [34]": {"system": "β-alanine aminopeptidase", "assay": "APIZYM-type test strips with β-alanyl-β-naphthylamide", "type": "cell-based", "details": "Pseudomonas aeruginosa; five strains"}, "β-alanine aminopeptidase [35]": {"system": "β-alanine aminopeptidase", "assay": "APIZYM-type test strips with β-alanyl-β-naphthylamide", "type": "cell-based", "details": "Actinobacillus ureae; 1 strain"}, "β-alanine aminopeptidase [36]": {"system": "β-alanine aminopeptidase", "assay": "APIZYM-type test strips with β-alanyl-β-naphthylamide", "type": "cell-based", "details": "Sphingomonas paucimobilis; five strains"}, "β-alanine aminopeptidase [37]": {"system": "β-alanine aminopeptidase", "assay": "APIZYM-type test strips with β-alanyl-β-naphthylamide", "type": "cell-based", "details": "Pasteurella pneumotropica; 4 strains"}, "β-alanine aminopeptidase [38]": {"system": "β-alanine aminopeptidase", "assay": "APIZYM-type test strips with β-alanyl-β-naphthylamide", "type": "cell-based", "details": "Pseudomonas stutzeri; five strains"}},
  "note": "Read-outs that look alike come from different tables or passages of the source.",
  "data": [
    {"compound": "NCCC(=O)c1c(N)cc(Cl)c(O)c1Cl", "values": [
      {"measurement": "Number of negative results", "setting": "β-alanine aminopeptidase [1]", "value": 2},
      {"measurement": "Number positive results", "setting": "β-alanine aminopeptidase [1]", "value": 0},
      {"measurement": "Number of negative results", "setting": "β-alanine aminopeptidase [2]", "value": 2},
      {"measurement": "Number positive results", "setting": "β-alanine aminopeptidase [2]", "value": 0},
      {"measurement": "Number of negative results", "setting": "β-alanine aminopeptidase [3]", "value": 2},
      {"measurement": "Number positive results", "setting": "β-alanine aminopeptidase [3]", "value": 0},
      {"measurement": "Number of negative results", "setting": "β-alanine aminopeptidase [4]", "value": 2},
      {"measurement": "Number positive results", "setting": "β-alanine aminopeptidase [4]", "value": 0},
      {"measurement": "Number of negative results", "setting": "β-alanine aminopeptidase [5]", "value": 2},
      {"measurement": "Number positive results", "setting": "β-alanine aminopeptidase [5]", "value": 0},
      {"measurement": "Number of negative results", "setting": "β-alanine aminopeptidase [6]", "value": 1},
      {"measurement": "Number positive results", "setting": "β-alanine aminopeptidase [6]", "value": 0},
      {"measurement": "Number of negative results", "setting": "β-alanine aminopeptidase [7]", "value": 2},
      {"measurement": "Number positive results", "setting": "β-alanine aminopeptidase [7]", "value": 0},
      {"measurement": "Number of negative results", "setting": "β-alanine aminopeptidase [8]", "value": 0},
      {"measurement": "Number positive results", "setting": "β-alanine aminopeptidase [8]", "value": 13},
      {"measurement": "Number of negative results", "setting": "β-alanine aminopeptidase [9]", "value": 2},
      {"measurement": "Number positive results", "setting": "β-alanine aminopeptidase [9]", "value": 0},
      {"measurement": "Number of negative results", "setting": "β-alanine aminopeptidase [10]", "value": 1},
      {"measurement": "Number positive results", "setting": "β-alanine aminopeptidase [10]", "value": 0},
      {"measurement": "Number of negative results", "setting": "β-alanine aminopeptidase [11]", "value": 0},
      {"measurement": "Number positive results", "setting": "β-alanine aminopeptidase [11]", "value": 1}
    ]},
    {"compound": "β-alanyl-β-naphthylamide", "values": [
      {"measurement": "β-alanine aminopeptidase activity, result", "setting": "β-alanine aminopeptidase [12]", "value": "negative"},
      {"measurement": "β-alanine aminopeptidase activity, result", "setting": "β-alanine aminopeptidase [13]", "value": "negative"},
      {"measurement": "β-alanine aminopeptidase activity, result", "setting": "β-alanine aminopeptidase [14]", "value": "negative"},
      {"measurement": "β-alanine aminopeptidase activity, result", "setting": "β-alanine aminopeptidase [15]", "value": "negative"},
      {"measurement": "β-alanine aminopeptidase activity, result", "setting": "β-alanine aminopeptidase [16]", "value": "positive"},
      {"measurement": "β-alanine aminopeptidase activity, result", "setting": "β-alanine aminopeptidase [17]", "value": "negative"},
      {"measurement": "β-alanine aminopeptidase activity, result", "setting": "β-alanine aminopeptidase [18]", "value": "negative"},
      {"measurement": "β-alanine aminopeptidase activity, result", "setting": "β-alanine aminopeptidase [19]", "value": "negative"},
      {"measurement": "β-alanine aminopeptidase activity, result", "setting": "β-alanine aminopeptidase [20]", "value": "negative"},
      {"measurement": "β-alanine aminopeptidase activity, result", "setting": "β-alanine aminopeptidase [21]", "value": "negative"},
      {"measurement": "β-alanine aminopeptidase activity, result", "setting": "β-alanine aminopeptidase [22]", "value": "negative"},
      {"measurement": "β-alanine aminopeptidase activity, result", "setting": "β-alanine aminopeptidase [23]", "value": "negative"},
      {"measurement": "β-alanine aminopeptidase activity, result", "setting": "β-alanine aminopeptidase [24]", "value": "negative"},
      {"measurement": "β-alanine aminopeptidase activity, result", "setting": "β-alanine aminopeptidase [25]", "value": "negative"},
      {"measurement": "β-alanine aminopeptidase activity, result", "setting": "β-alanine aminopeptidase [26]", "value": "negative"},
      {"measurement": "β-alanine aminopeptidase activity, result", "setting": "β-alanine aminopeptidase [27]", "value": "negative"},
      {"measurement": "β-alanine aminopeptidase activity, result", "setting": "β-alanine aminopeptidase [28]", "value": "negative"},
      {"measurement": "β-alanine aminopeptidase activity, result", "setting": "β-alanine aminopeptidase [29]", "value": "negative"},
      {"measurement": "β-alanine aminopeptidase activity, result", "setting": "β-alanine aminopeptidase [30]", "value": "negative"},
      {"measurement": "β-alanine aminopeptidase activity, result", "setting": "β-alanine aminopeptidase [31]", "value": "negative"},
      {"measurement": "β-alanine aminopeptidase activity, result", "setting": "β-alanine aminopeptidase [32]", "value": "negative"},
      {"measurement": "β-alanine aminopeptidase activity, result", "setting": "β-alanine aminopeptidase [33]", "value": "positive"},
      {"measurement": "β-alanine aminopeptidase activity, result", "setting": "β-alanine aminopeptidase [34]", "value": "positive"},
      {"measurement": "β-alanine aminopeptidase activity, result", "setting": "β-alanine aminopeptidase [35]", "value": "negative"},
      {"measurement": "β-alanine aminopeptidase activity, result", "setting": "β-alanine aminopeptidase [36]", "value": "negative"},
      {"measurement": "β-alanine aminopeptidase activity, result", "setting": "β-alanine aminopeptidase [37]", "value": "negative"},
      {"measurement": "β-alanine aminopeptidase activity, result", "setting": "β-alanine aminopeptidase [38]", "value": "negative"}
    ]}
  ]
}
